Laboratory results published in patent publication US20100285959A1, “HERBICIDAL MIXTURES” (priority 2006, published 2010).

Assays:
[1] = tested on: wild mustard (SINAR); assay: Test 23 growth chamber, postemergence; assay type: in vivo, Sinapis arvensis; details: 21 DAA; 2,4-D or MCPA alone 250 g a.i./ha
Protocol: (§1) A test was conducted to evaluate the effects on winter barley (HORVW, Hordeum vulgare L.), winter wheat (TRZAW, Triticum aestivum L.), and several weed species of mixtures of Compound 2 with the commercial herbicides (2,4-dichlorophenoxy)acetic acid (2,4-D) and (4-chloro-2-methylphenoxy)acetic acid (MCPA), auxin mimics. […] Plants were treated postemergence at the 2-4 leaf growth stage, and each treatment was replicated three times. […] Plants were watered as needed. […] Results are means of the three replicates.

[2] = tested on: galium (GALAP); assay: Test 23 growth chamber, postemergence; assay type: in vivo, Galium aparine; details: 21 DAA; 2,4-D or MCPA alone 250 g a.i./ha
Protocol: as §1

[3] = tested on: winter barley (HORVW); assay: Test 20 growth chamber, postemergence; assay type: in vivo, Hordeum vulgare; details: 25 DAA; 2,4-D or MCPA alone 250 g a.i./ha
Protocol: as §1, with “vulgare L.) and” for “vulgare L.),”, “aestivum L.)” for “aestivum L.), and several weed species”, “the 2-leaf” for “the 2-4 leaf”, “replicated a total of four times (three times in the loam/sand blend and one time in RediEarth).” for “replicated three times.”, “are the” for “are”, “the four” for “the three”

[4] = tested on: kochia (KCHSC); assay: Test 23 growth chamber, postemergence; assay type: in vivo, Kochia scoparia; details: 21 DAA; 2,4-D or MCPA alone 250 g a.i./ha
Protocol: as §1

[5] = tested on: winter barley (HORVW); assay: Test 22 growth chamber, postemergence; assay type: in vivo, Hordeum vulgare; details: 25 DAA; 2,4-D or MCPA alone 250 g a.i./ha
Protocol: as §1, with “stage, except KCHSC, SASKR” for “stage,”, “STEME which were in the 4-8 leaf growth stage. Each” for “each”, “one time.” for “three times.”, “from single” for “means of the three”

[6] = tested on: Russian thistle (SASKR); assay: Test 22 growth chamber, postemergence; assay type: in vivo, Salsola kali; details: 25 DAA; 2,4-D or MCPA alone 250 g a.i./ha
Protocol: as §1, with “stage, except KCHSC, SASKR” for “stage,”, “STEME which were in the 4-8 leaf growth stage. Each” for “each”, “one time.” for “three times.”, “from single” for “means of the three”

[7] = tested on: wild chamomile (MATCH); assay: Test 23 growth chamber, postemergence; assay type: in vivo, Matricaria chamomilla; details: 21 DAA; 2,4-D or MCPA alone 250 g a.i./ha
Protocol: as §1

[8] = tested on: wild mustard (SINAR); assay: Test 22 growth chamber, postemergence; assay type: in vivo, Sinapis arvensis; details: 25 DAA; 2,4-D or MCPA alone 250 g a.i./ha
Protocol: as §1, with “stage, except KCHSC, SASKR” for “stage,”, “STEME which were in the 4-8 leaf growth stage. Each” for “each”, “one time.” for “three times.”, “from single” for “means of the three”

[9] = tested on: redroot pigweed (AMARE); assay: Test 23 growth chamber, postemergence; assay type: in vivo, Amaranthus retroflexus; details: 21 DAA; 2,4-D or MCPA alone 250 g a.i./ha
Protocol: as §1

[10] = tested on: wild buckwheat (POLCO); assay: Test 23 growth chamber, postemergence; assay type: in vivo, Polygonum convolvulus; details: 21 DAA; 2,4-D or MCPA alone 250 g a.i./ha
Protocol: as §1

[11] = tested on: common chickweed (STEME); assay: Test 22 growth chamber, postemergence; assay type: in vivo, Stellaria media; details: 25 DAA; 2,4-D or MCPA alone 250 g a.i./ha
Protocol: as §1, with “stage, except KCHSC, SASKR” for “stage,”, “STEME which were in the 4-8 leaf growth stage. Each” for “each”, “one time.” for “three times.”, “from single” for “means of the three”

[12] = tested on: Russian thistle (SASKR); assay: Test 23 growth chamber, postemergence; assay type: in vivo, Salsola kali; details: 21 DAA; 2,4-D or MCPA alone 250 g a.i./ha
Protocol: as §1

[13] = tested on: field poppy (PAPRH); assay: Test 23 growth chamber, postemergence; assay type: in vivo, Papaver rhoeas; details: 21 DAA; 2,4-D or MCPA alone 250 g a.i./ha
Protocol: as §1

[14] = tested on: field violet (VIOAR); assay: Test 23 growth chamber, postemergence; assay type: in vivo, Viola arvensis; details: 21 DAA; 2,4-D or MCPA alone 250 g a.i./ha
Protocol: as §1

[15] = tested on: common lambsquarters (CHEAL); assay: Test 22 growth chamber, postemergence; assay type: in vivo, Chenopodium album; details: 25 DAA; 2,4-D or MCPA alone 250 g a.i./ha
Protocol: as §1, with “stage, except KCHSC, SASKR” for “stage,”, “STEME which were in the 4-8 leaf growth stage. Each” for “each”, “one time.” for “three times.”, “from single” for “means of the three”

[16] = tested on: common chickweed (STEME); assay: Test 23 growth chamber, postemergence; assay type: in vivo, Stellaria media; details: 21 DAA; 2,4-D or MCPA alone 250 g a.i./ha
Protocol: as §1

[17] = tested on: redroot pigweed (AMARE); assay: Test 22 growth chamber, postemergence; assay type: in vivo, Amaranthus retroflexus; details: 25 DAA; 2,4-D or MCPA alone 250 g a.i./ha
Protocol: as §1, with “stage, except KCHSC, SASKR” for “stage,”, “STEME which were in the 4-8 leaf growth stage. Each” for “each”, “one time.” for “three times.”, “from single” for “means of the three”

[18] = tested on: winter barley (HORVW); assay: Test 23 growth chamber, postemergence; assay type: in vivo, Hordeum vulgare; details: 21 DAA; 2,4-D or MCPA alone 250 g a.i./ha
Protocol: as §1

[19] = tested on: winter wheat (TRZAW); assay: Test 23 growth chamber, postemergence; assay type: in vivo, Triticum aestivum; details: 21 DAA; 2,4-D or MCPA alone 250 g a.i./ha
Protocol: as §1

[20] = tested on: winter wheat (TRZAW); assay: Test 20 growth chamber, postemergence; assay type: in vivo, Triticum aestivum; details: 25 DAA; 2,4-D or MCPA alone 250 g a.i./ha
Protocol: as §1, with “vulgare L.) and” for “vulgare L.),”, “aestivum L.)” for “aestivum L.), and several weed species”, “the 2-leaf” for “the 2-4 leaf”, “replicated a total of four times (three times in the loam/sand blend and one time in RediEarth).” for “replicated three times.”, “are the” for “are”, “the four” for “the three”

[21] = tested on: kochia (KCHSC); assay: Test 22 growth chamber, postemergence; assay type: in vivo, Kochia scoparia; details: 25 DAA; 2,4-D or MCPA alone 250 g a.i./ha
Protocol: as §1, with “stage, except KCHSC, SASKR” for “stage,”, “STEME which were in the 4-8 leaf growth stage. Each” for “each”, “one time.” for “three times.”, “from single” for “means of the three”

[22] = tested on: wild buckwheat (POLCO); assay: Test 22 growth chamber, postemergence; assay type: in vivo, Polygonum convolvulus; details: 25 DAA; 2,4-D or MCPA alone 250 g a.i./ha
Protocol: as §1, with “stage, except KCHSC, SASKR” for “stage,”, “STEME which were in the 4-8 leaf growth stage. Each” for “each”, “one time.” for “three times.”, “from single” for “means of the three”

[23] = tested on: galium (GALAP); assay: Test 22 growth chamber, postemergence; assay type: in vivo, Galium aparine; details: 25 DAA; 2,4-D or MCPA alone 250 g a.i./ha
Protocol: as §1, with “stage, except KCHSC, SASKR” for “stage,”, “STEME which were in the 4-8 leaf growth stage. Each” for “each”, “one time.” for “three times.”, “from single” for “means of the three”

[24] = tested on: common lambsquarters (CHEAL); assay: Test 23 growth chamber, postemergence; assay type: in vivo, Chenopodium album; details: 21 DAA; 2,4-D or MCPA alone 250 g a.i./ha
Protocol: as §1

[25] = tested on: winter wheat (TRZAW); assay: Test 22 growth chamber, postemergence; assay type: in vivo, Triticum aestivum; details: 25 DAA; 2,4-D or MCPA alone 250 g a.i./ha
Protocol: as §1, with “stage, except KCHSC, SASKR” for “stage,”, “STEME which were in the 4-8 leaf growth stage. Each” for “each”, “one time.” for “three times.”, “from single” for “means of the three”

Cc1cc(Cl)ccc1OCC(=O)O [MCPA]
Postemergence SINAR Obs [1]: 65
Postemergence GALAP Obs [2]: 43
Postemergence HORVW Obs [3]: 33
Postemergence KCHSC Obs [4]: 67
Postemergence HORVW Obs [5]: 25
Postemergence SASKR Obs [6]: 45
Postemergence MATCH Obs [7]: 53
Postemergence SINAR Obs [8]: 75
Postemergence AMARE Obs [9]: 63
Postemergence POLCO Obs [10]: 52
Postemergence STEME Obs [11]: 50
Postemergence SASKR Obs [12]: 43
Postemergence PAPRH Obs [13]: 57
Postemergence VIOAR Obs [14]: 60
Postemergence CHEAL Obs [15]: 65
Postemergence STEME Obs [16]: 55
Postemergence AMARE Obs [17]: 65
Postemergence HORVW Obs [18]: 35
Postemergence TRZAW Obs [19]: 32
Postemergence TRZAW Obs [20]: 18
Postemergence KCHSC Obs [21]: 55
Postemergence POLCO Obs [22]: 40
Postemergence GALAP Obs [23]: 50
Postemergence CHEAL Obs [24]: 70
Postemergence TRZAW Obs [25]: 10
